In PubChem BioAssay (NCI):
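Briefly, cells in 96-well plates were exposed to five compound concentrations for 48 h, and endpoints were estimated by linear interpolation. GI50 = concentration required for 50% inhibition of growth. The concentration for full growth arrest is given as TGI.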

What was measured:
Test in all cases: NCI tumour cell line growth inhibition, 48 h
ACHN renal = tested on: ACHN renal
BT-549 breast = tested on: BT-549 breast
K-562 leukemia = tested on: K-562 leukemia
MALME-3M melanoma = tested on: MALME-3M melanoma
MOLT-4 leukemia = tested on: MOLT-4 leukemia
NCI-H226 lung = tested on: NCI-H226 lung
NCI-H460 lung = tested on: NCI-H460 lung
T-47D breast = tested on: T-47D breast
UACC-257 melanoma = tested on: UACC-257 melanoma
UO-31 renal = tested on: UO-31 renal

SMILES | GI50 (ACHN renal) [µM] | TGI (ACHN renal) [µM] | GI50 (BT-549 breast) [µM] | TGI (BT-549 breast) [µM] | GI50 (K-562 leukemia) [µM] | TGI (K-562 leukemia) [µM] | GI50 (MALME-3M melanoma) [µM] | TGI (MALME-3M melanoma) [µM] | GI50 (MOLT-4 leukemia) [µM] | TGI (MOLT-4 leukemia) [µM] | GI50 (NCI-H226 lung) [µM] | TGI (NCI-H226 lung) [µM] | GI50 (NCI-H460 lung) [µM] | TGI (NCI-H460 lung) [µM] | GI50 (T-47D breast) [µM] | TGI (T-47D breast) [µM] | GI50 (UACC-257 melanoma) [µM] | TGI (UACC-257 melanoma) [µM] | GI50 (UO-31 renal) [µM] | TGI (UO-31 renal) [µM]
C=C1C(=O)O[C@H]2[C@H]1CC/C(COC(=O)OCCCCCOC(=O)OC/C1=C/CC[C@@]3(C)O[C@H]3[C@H]3OC(=O)C(=C)[C@@H]3CC1)=C\CC[C@@]1(C)O[C@@H]21 | 0.176 | 0.341 | 0.182 | 0.437 | 0.267 | 1.08 | 0.285 | 0.878 | 0.229 | 0.727 | 1.64 | 3.42 | 1.87 | 4.64 | 0.244 | 0.75 | 0.661 | 2.31 | 0.674 | 2.05
Brc1c[n+](Cc2ccc3ccccc3c2)cn1Cc1ccc2ccccc2c1 | 11.8 | 25.5 | 1.69 | 3.18 | 1.84 | 10.6 | 1.22 | 2.71 | 1.79 | 5.58 | 2.24 | 5.87 | 1.78 | 3.57 | 2.14 | 7.2 | 1.76 | 4.12 | 7.09 | 23.1
c1ccc2c(c1)O[As](O[As]1Oc3ccccc3O1)O2 | 6.47 | 21.4 | 1.22 | 6.55 | 1.66 | 7.28 | 2.32 | 5.21 | 2.45 | 7.21 | 3.61 | 19.7 | 4.43 | 23.6 | 1.69 | 14.6 | 2.07 | 9.88 | 1.97 | 11.3
O=C1Nc2ccc(F)c3c(OCCO)cc(-c4ccc[nH]4)c1c23 | 0.608 | 7.2 | 3.21 | 11.6 | 5.28 | 25 | 3.47 | 11.5 | 1.21 | 10.3 | 1.47 | 12.8 | 0.927 | 5.14 | 0.513 | 1.52 | 4.94 | 17.9 | 0.632 | 4.05
COc1ccccc1-c1cc2c3c(nc4ccccc42)C(=O)c2cccnc2-c3n1 | 13.7 | 30.1 | 13.3 | 18.1 | > 19.6 | > 100 | 15.4 | 28.7 | > 42.6 | > 100 | 15.3 | 33 | 11.5 | 26 | 9.08 | > 94.6 | 7.22 | 22.8 | 11.1 | 23.3
COc1ccc2c(c1)C(=O)c1c-2c(NCCCN(C)C)nc2ccccc12 | 1.11 | 2.31 | 21.8 | 62.3 | 3.69 | 14.7 | 3.86 | 15.5 | 1.43 | 11.1 | 11.6 | 24 | 1.33 | 2.76 | 17.8 | 34.2 | 11.8 | 25.4 | 4.91 | 18.4
